Experiments:
[1] = molecular target: Transient receptor potential cation channel subfamily V member 4 (Homo sapiens, UniProt Q9HBA0); assay: Inhibition of human TRPV4 expressed in baculovirus infected HEK/MSR 2 cells pre-incubated for 10 mins followed by GSK634775A addition by Fura-2 dye based FLIPR assay
[2] = Lipophilicity, chromatographic logD of compound at pH 7.4; details: buffer
[3] = Mean residence time in Sprague-Dawley rat at 1 mg/kg, iv measured after 24 hrs by HPLC-MS/MS analysis; assay type: ADME, organism-based; details: in vivo
[4] = Unbound fraction in Sprague-Dawley rat plasma; assay type: ADME, cell-free
[5] = Clearance in Sprague-Dawley rat at 1 mg/kg, iv measured after 24 hrs by HPLC-MS/MS analysis; assay type: ADME, organism-based; details: in vivo
[6] = Volume of distribution at steady state in Sprague-Dawley rat at 1 mg/kg, iv measured after 24 hrs by HPLC-MS/MS analysis; assay type: ADME, organism-based; details: in vivo, read-out: Vdss
[7] = Oral bioavailability in Sprague-Dawley rat at 2 mg/kg measured after 24 hrs by HPLC-MS/MS analysis; assay type: ADME, organism-based; details: in vivo
[8] = molecular target: Transient receptor potential cation channel subfamily V member 4 (Rattus norvegicus, UniProt Q9ERZ8); assay: Inhibition of rat TRPV4 expressed in baculovirus infected HEK/MSR 2 cells pre-incubated for 10 mins followed by GSK634775A addition by Fura-2 dye based FLIPR assay
[9] = Unbound clearance in Sprague-Dawley rat; assay type: ADME; details: in vivo
[10] = Unbound volume of distribution at steady state in Sprague-Dawley rat; assay type: ADME; details: in vivo

Sequence of Transient receptor potential cation channel subfamily V member 4 (Homo sapiens, UniProt Q9HBA0) (Q9HBA0 whole entry): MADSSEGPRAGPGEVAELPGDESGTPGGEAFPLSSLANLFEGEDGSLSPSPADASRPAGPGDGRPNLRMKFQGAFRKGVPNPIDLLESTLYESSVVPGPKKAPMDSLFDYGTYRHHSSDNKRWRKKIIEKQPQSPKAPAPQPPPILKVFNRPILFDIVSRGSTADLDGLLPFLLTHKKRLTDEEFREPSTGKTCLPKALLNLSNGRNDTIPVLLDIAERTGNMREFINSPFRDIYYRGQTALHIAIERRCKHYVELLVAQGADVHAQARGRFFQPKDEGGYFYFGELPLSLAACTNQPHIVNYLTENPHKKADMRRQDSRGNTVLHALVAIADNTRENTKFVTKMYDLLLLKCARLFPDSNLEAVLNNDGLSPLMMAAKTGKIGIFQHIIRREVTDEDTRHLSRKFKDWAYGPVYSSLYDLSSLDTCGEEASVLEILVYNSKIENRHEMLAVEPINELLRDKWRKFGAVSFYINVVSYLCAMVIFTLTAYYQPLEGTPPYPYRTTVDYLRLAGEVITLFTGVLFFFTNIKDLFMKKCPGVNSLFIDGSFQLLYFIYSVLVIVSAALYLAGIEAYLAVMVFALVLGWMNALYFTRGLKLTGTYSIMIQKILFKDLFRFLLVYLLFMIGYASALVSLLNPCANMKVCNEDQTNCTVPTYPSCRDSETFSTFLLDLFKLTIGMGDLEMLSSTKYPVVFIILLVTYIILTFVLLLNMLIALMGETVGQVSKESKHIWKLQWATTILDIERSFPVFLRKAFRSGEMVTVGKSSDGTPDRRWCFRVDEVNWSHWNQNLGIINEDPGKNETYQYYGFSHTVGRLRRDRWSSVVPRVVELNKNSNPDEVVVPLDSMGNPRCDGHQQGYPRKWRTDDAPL
Sequence of Transient receptor potential cation channel subfamily V member 4 (Rattus norvegicus, UniProt Q9ERZ8) (Q9ERZ8 whole entry): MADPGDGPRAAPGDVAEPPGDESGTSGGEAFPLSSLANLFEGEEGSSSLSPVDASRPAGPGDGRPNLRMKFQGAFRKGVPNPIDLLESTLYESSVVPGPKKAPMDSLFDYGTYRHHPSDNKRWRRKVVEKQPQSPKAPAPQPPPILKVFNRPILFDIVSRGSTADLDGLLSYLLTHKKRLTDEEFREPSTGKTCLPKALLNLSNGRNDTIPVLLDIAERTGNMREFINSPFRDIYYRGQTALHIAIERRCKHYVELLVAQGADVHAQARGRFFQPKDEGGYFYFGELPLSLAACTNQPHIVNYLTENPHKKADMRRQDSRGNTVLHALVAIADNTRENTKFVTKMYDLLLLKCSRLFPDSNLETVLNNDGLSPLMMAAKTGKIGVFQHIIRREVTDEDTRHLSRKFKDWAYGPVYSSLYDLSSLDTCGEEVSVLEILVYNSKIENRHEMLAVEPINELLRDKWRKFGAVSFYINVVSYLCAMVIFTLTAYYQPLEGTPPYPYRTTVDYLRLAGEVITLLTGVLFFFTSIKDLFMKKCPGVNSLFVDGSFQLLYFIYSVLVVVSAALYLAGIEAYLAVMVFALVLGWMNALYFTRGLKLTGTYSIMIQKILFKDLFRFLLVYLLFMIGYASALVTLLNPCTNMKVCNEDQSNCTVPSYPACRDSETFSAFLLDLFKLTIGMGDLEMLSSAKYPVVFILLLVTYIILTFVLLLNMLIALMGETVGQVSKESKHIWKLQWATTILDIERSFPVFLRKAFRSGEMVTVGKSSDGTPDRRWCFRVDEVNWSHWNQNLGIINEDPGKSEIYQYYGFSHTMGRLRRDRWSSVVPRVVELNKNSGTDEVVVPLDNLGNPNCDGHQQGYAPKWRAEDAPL

SMILES	IC50 [1]	ChromLogD [2]	MRT [3]	fraction unbound [4]	clearance [5]	Vd [6]	bioavailability [7]	IC50 [8]	CL free [9]	Vduss [10]
C[C@]1(Cn2cnc3ccc(C#N)cc32)CCC[C@@]2(CN(c3ccccc3Cl)C(=O)O2)C1	2.5 nM	4.8								
CCOc1ccc(N2C[C@@]3(CCC[C@H](Cn4cnc5ccc(C#N)cc54)C3)OC2=O)cc1	140 nM	4.8								
N#Cc1ccc2ncn(C[C@H]3CCC[C@]4(C3)CN(c3ccccc3F)C(=O)O4)c2c1	540 nM	4.2								
CCOc1ccc(N2C[C@@]3(CCC[C@](C)(Cn4cnc5ccc(C#N)cc54)C3)OC2=O)cn1	3.1 nM		1.6 h	0.031	24 mL/min/kg					
C[C@]1(Cn2cnc3ccc(C#N)cc32)CCC[C@@]2(CN(c3ccccc3)C(=O)O2)C1	49 nM									
N#Cc1ccc2ncn(C[C@H]3CCC[C@]4(C3)CN(c3ccccc3)C(=O)O4)c2c1	820 nM	4.6								
Cc1ccccc1N1C[C@@]2(CCC[C@](C)(Cn3cnc4ccc(C#N)cc43)C2)OC1=O	1.7 nM	4.8								
CCOc1ccc(N2C[C@@]3(CCC[C@](C)(Cn4cnc5ccc(C#N)cc54)C3)OC2=O)cc1	5.2 nM	5.4	0.9 h		140 mL/min/kg	7.2 L/kg	29%			
C[C@]1(Cn2cnc3ccc(C#N)cc32)CCC[C@@]2(CN(c3ccccc3F)C(=O)O2)C1	5.2 nM	4.9								
COc1ccccc1N1C[C@@]2(CCC[C@](C)(Cn3cnc4ccc(C#N)cc43)C2)OC1=O	1.2 nM	4.6	1 h	0.036	26 mL/min/kg	1.4 L/kg	100%		720 mL/min/kg	
CC(C)(C)CN1C[C@@]2(CCC[C@H](Cn3cnc4ccc(C#N)cc43)C2)OC1=O	16 nM	4.5	0.7 h	0.32	64 mL/min/kg	2.6 L/kg	63%	5.5 nM	200 mL/min/kg	8.1 L/kg
N#Cc1ccc2ncn(C[C@H]3CCC[C@]4(C3)CN(c3cccc(Cl)c3)C(=O)O4)c2c1	240 nM	5.3								
Cc1cnc(N2C[C@@]3(CCC[C@](C)(Cn4cnc5ccc(C#N)cc54)C3)OC2=O)cn1	60 nM	4.2								

Other lines, results leading:

IC50 [1]	ChromLogD [2]	MRT [3]	fraction unbound [4]	clearance [5]	Vd [6]	bioavailability [7]	IC50 [8]	CL free [9]	Vduss [10]	SMILES
1.2 nM	6.3									CC(C)(C)c1cnc(N2C[C@@]3(CCC[C@](C)(Cn4cnc5ccc(C#N)cc54)C3)OC2=O)cn1
48 nM	5.7									C[C@]1(Cn2cnc3ccc(C#N)cc32)CCC[C@@]2(CN(c3cccc(Cl)c3)C(=O)O2)C1
340 nM	4.2									COc1ccccc1N1C[C@@]2(CCC[C@H](Cn3cnc4ccc(C#N)cc43)C2)OC1=O
> 25000 nM	4.6	0.3 h		70 mL/min/kg	1.1 L/kg	8%				CC(C)(C)CN1C[C@@]2(CCC[C@H](C(C)(C)n3cnc4ccc(C#N)cc43)C2)OC1=O (racemic)
1.6 nM	5.3									CCOc1cccc(N2C[C@@]3(CCC[C@](C)(Cn4cnc5ccc(C#N)cc54)C3)OC2=O)c1
1.8 nM	4	4.9 h	0.082	6.5 mL/min/kg	1.9 L/kg	59%	1.6 nM	79 mL/min/kg		CC(C)(O)c1cnc(N2C[C@@]3(CCC[C@](C)(Cn4cnc5ccc(C#N)cc54)C3)OC2=O)cn1 [GSK2798745]
63 nM	4.3									N#Cc1ccc2ncn(C[C@H]3CCC[C@]4(C3)CN(c3ccccc3Cl)C(=O)O4)c2c1
96 nM	4.9	2.8 h		39 mL/min/kg	6.5 L/kg	100%				C[C@]1(Cn2cnc3ccc(C#N)cc32)CCC[C@@]2(CN(c3ccc(F)cc3)C(=O)O2)C1
1.5 nM	5.3							340 mL/min/kg		C[C@]1(Cn2cnc3ccc(C#N)cc32)CCC[C@@]2(CN(c3cnc(C4CC4)cn3)C(=O)O2)C1
0.5 nM	4.6	0.5 h	0.14	63 mL/min/kg	2.1 L/kg	32%		450 mL/min/kg		CC(C)(C)CN1C[C@@]2(CCC[C@](C)(Cn3cnc4ccc(C#N)cc43)C2)OC1=O
5200 nM	4	0.5 h		55 mL/min/kg	1.8 L/kg	44%				CC(C)(C)N1C[C@@]2(CCC[C@H](Cn3cnc4ccc(C#N)cc43)C2)OC1=O (racemic)
60 nM		1.9 h		14 mL/min/kg						CCOc1ccc(N2C[C@@]3(CCC[C@](C)(Cn4cnc5ccc(C#N)cc54)C3)OC2=O)nn1
14 nM	4.8							400 mL/min/kg		COc1cnc(N2C[C@@]3(CCC[C@](C)(Cn4cnc5ccc(C#N)cc54)C3)OC2=O)cn1
310 nM	4.6									Cc1ccccc1N1C[C@@]2(CCC[C@H](Cn3cnc4ccc(C#N)cc43)C2)OC1=O
74 nM	5									CCOc1cccc(N2C[C@@]3(CCC[C@H](Cn4cnc5ccc(C#N)cc54)C3)OC2=O)c1
1900 nM	4.5	3.1 h	0.065	23 mL/min/kg	4 L/kg	100%		350 mL/min/kg	61 L/kg	N#Cc1ccc2ncn(C[C@H]3CCC[C@]4(C3)CN(c3ccc(F)cc3)C(=O)O4)c2c1 (racemic)
4.2 nM	5.5	5.2 h	0.037	17 mL/min/kg	5.4 L/kg	100%		460 mL/min/kg		CCOc1cnc(N2C[C@@]3(CCC[C@](C)(Cn4cnc5ccc(C#N)cc54)C3)OC2=O)cn1

Source: ChEMBL document CHEMBL4304797, “Discovery of GSK2798745: A Clinical Candidate for Inhibition of Transient Receptor Potential Vanilloid 4 (TRPV4)” (ACS Med Chem Lett, 2019)
